Laboratory results from patent US8785655B2, “Ionic liquid solvents” (Dublin City University, priority 2009, dated 2014).

Assays:
[1] = system: Staphylococcus aureus CCM 4516/08; assay: Screen against bacteria, MIC/IC80; type: cell-based; details: SA
[2] = system: Staphylococcus aureus H 5996/08 Methiciline-resistant; assay: Screen against bacteria, MIC/IC80; type: cell-based; details: MRSA
[3] = system: Staphylococcus epidermidis H 6966/08; assay: Screen against bacteria, MIC/IC80; type: cell-based; details: SE
[4] = system: Enterococcus sp. J 14365/08; assay: Screen against bacteria, MIC/IC80; type: cell-based; details: EF
Escherichia coli CCM4517 = assay: Screen against bacteria, MIC/IC80; type: cell-based; details: EC
[5] = system: Klebsiella pneumoniae D 11750/08; assay: Screen against bacteria, MIC/IC80; type: cell-based; details: KP
[6] = system: Klebsiella pneumoniae J 14368/08 ESBL-positive; assay: Screen against bacteria, MIC/IC80; type: cell-based; details: KP-E
[7] = system: Pseudomonas aeruginosa CCM 1961; assay: Screen against bacteria, MIC/IC80; type: cell-based; details: PA
[8] = system: Candida albicans ATCC 44859; assay: In vitro antifungal activity, MIC by microdilution (NCCLS M27-A)
[9] = system: Candida albicans ATCC 90028; assay: as above
Description: (§1) In vitro antifungal activities of the compounds were evaluated on the collection of fungal strains deposited at the Department of Biological and Medical Sciences, Faculty of Pharmacy, Charles University, Czech Republic. All the isolates were maintained on Sabouraud dextrose agar prior to being tested.
(§2) Minimum inhibitory concentrations (MICs) were determined by the microdilution format of the NCCLS M27-A guidelines. […] RPMI 1640 (Sevapharma, Prague) medium supplemented with L-glutamine and buffered with 0.165 M morpholinepropanesulfonic acid to pH 7.0 was used as the test medium. The wells of the microdilution tray contained 100 μl of the RPMI 1640 medium with 2-fold serial dilutions of the compounds (1000 to 0.24 μmol/l for the new compounds) and 100 μl of inoculum suspension. Fungal inoculum in RPMI 1640 was prepared to give a final concentration of 5×103±0.2 cfu·ml-1. The trays were incubated at 35° C. and MICs were read visually for filamentous fungi and photometrically for yeasts as an optical density (OD) at 540 nm after 24 h and 48 h. The MICs were defined as 80% inhibition of the growth of control. MICs were determined twice and in duplicate. The deviations from the usually obtained were no higher than the nearest concentration value up and down the dilution scale.

[10] = system: Candida parapsilosis ATCC 22019; assay: as above; details: CP
Candida krusei ATCC 6258 = assay: as above
Description: as §1, §2

Candida krusei E28 = assay: as above
Description: All the isolates were maintained on Sabouraud dextrose agar prior to being tested.
as §2

Candida tropicalis 156 = assay: as above; details: CT
Description: as §1, §2

Candida glabrata 20/l = assay: as above; details: CG
[11] = system: Candida lusitaniae 2446/l; assay: as above; details: CL
[12] = system: Aspergillus fumigatus 231; assay: as above; details: AF
Absidia corymbifera 272 = assay: as above; details: AC
[13] = system: Trichophyton mentagrophytes 445; assay: as above; details: TM

SMILES	MIC/IC80 ([1]; 24 h) [mM]	MIC/IC80 ([1]; 48 h) [mM]	MIC/IC80 ([2]; 24 h) [mM]	MIC/IC80 ([2]; 48 h) [mM]	MIC/IC80 ([3]; 24 h) [mM]	MIC/IC80 ([3]; 48 h) [mM]	MIC/IC80 ([4]; 24 h) [mM]	MIC/IC80 ([4]; 48 h) [mM]	MIC/IC80 (Escherichia coli CCM4517; 24 h) [mM]	MIC/IC80 (Escherichia coli CCM4517; 48 h) [mM]	MIC/IC80 ([5]; 24 h) [mM]	MIC/IC80 ([5]; 48 h) [mM]	MIC/IC80 ([6]; 24 h) [mM]	MIC/IC80 ([6]; 48 h) [mM]	MIC/IC80 ([7]; 24 h) [mM]	MIC/IC80 ([7]; 48 h) [mM]	MIC/IC80 ([8]; CA1, 24 h) [mM]	MIC/IC80 ([8]; CA1, 48 h) [mM]	MIC/IC80 ([9]; CA2, 24 h) [mM]	MIC/IC80 ([9]; CA2, 48 h) [mM]	also measured
CCOCCOC(=O)C(OC(=O)Cn1cc[n+](C)c1)c1ccccc1.[Br-] (centres unmarked) [KG818, RS-3-methyl-1-[1-(ethoxyethoxycarbonyl)-1-phenylmethoxycarbonylmethyl]imidazolium bromide]	>1	>1	>1	>1	>1	>1	>1	>1	>1	>1	>1	>1	>1	>1	>1	>1	>1	>1	>1	>1	MIC/IC80 ([10]; 24 h): >1 mM; MIC/IC80 ([10]; 48 h): >1 mM; MIC/IC80 (Candida krusei ATCC 6258; CK1, 24 h): >1 mM; MIC/IC80 (Candida krusei ATCC 6258; CK1, 48 h): >1 mM; MIC/IC80 (Candida krusei E28; CK2, 24 h): >1 mM; MIC/IC80 (Candida krusei E28; CK2, 48 h): >1 mM; MIC/IC80 (Candida tropicalis 156; 24 h): >1 mM; MIC/IC80 (Candida tropicalis 156; 48 h): >1 mM; MIC/IC80 (Candida glabrata 20/l; 24 h): >1 mM; MIC/IC80 (Candida glabrata 20/l; 48 h): >1 mM; MIC/IC80 ([11]; 24 h): >1 mM; MIC/IC80 ([11]; 48 h): >1 mM; MIC/IC80 ([12]; 24 h): >1 mM; MIC/IC80 ([12]; 48 h): >1 mM; MIC/IC80 (Absidia corymbifera 272; 24 h): >1 mM; MIC/IC80 (Absidia corymbifera 272; 48 h): >1 mM; MIC/IC80 ([13]; 72 h): >1 mM; MIC/IC80 ([13]; 120 h): >1 mM
CCCCCOC(=O)[C@@H](OC(=O)Cn1cc[n+](C)c1)c1ccccc1.[Br-] [KG824, S-3-methyl-1-[1-(pentoxycarbonyl)-1-phenylmethoxycarbonylmethyl]imidazolium bromide]	>1	>1	>1	>1	>1	>1	>1	>1	>1	>1	>1	>1	>1	>1	>1	>1	0.5	>1	1	>1	MIC/IC80 ([10]; 24 h): >1 mM; MIC/IC80 ([10]; 48 h): >1 mM; MIC/IC80 (Candida krusei ATCC 6258; CK1, 24 h): 1 mM; MIC/IC80 (Candida krusei ATCC 6258; CK1, 48 h): >1 mM; MIC/IC80 (Candida krusei E28; CK2, 24 h): 1 mM; MIC/IC80 (Candida krusei E28; CK2, 48 h): >1 mM; MIC/IC80 (Candida tropicalis 156; 24 h): >1 mM; MIC/IC80 (Candida tropicalis 156; 48 h): >1 mM; MIC/IC80 (Candida glabrata 20/l; 24 h): 1 mM; MIC/IC80 (Candida glabrata 20/l; 48 h): >1 mM; MIC/IC80 ([11]; 24 h): >1 mM; MIC/IC80 ([11]; 48 h): >1 mM; MIC/IC80 ([12]; 24 h): 1 mM; MIC/IC80 ([12]; 48 h): 1 mM; MIC/IC80 (Absidia corymbifera 272; 24 h): 1 mM; MIC/IC80 (Absidia corymbifera 272; 48 h): 1 mM; MIC/IC80 ([13]; 72 h): 0.5 mM; MIC/IC80 ([13]; 120 h): 0.5 mM
CCOCCOC(=O)[C@@H](OC(=O)Cn1cc[n+](C)c1)c1ccccc1.[Br-] [KG826, S-3-methyl-1-[1-(ethoxyethoxycarbonyl)-1-phenylmethoxycarbonylmethyl]imidazolium bromide]	>1	>1	>1	>1	>1	>1	>1	>1	>1	>1	>1	>1	>1	>1	>1	>1	>1	>1	>1	>1	MIC/IC80 ([10]; 24 h): >1 mM; MIC/IC80 ([10]; 48 h): >1 mM; MIC/IC80 (Candida krusei ATCC 6258; CK1, 24 h): >1 mM; MIC/IC80 (Candida krusei ATCC 6258; CK1, 48 h): >1 mM; MIC/IC80 (Candida krusei E28; CK2, 24 h): >1 mM; MIC/IC80 (Candida krusei E28; CK2, 48 h): >1 mM; MIC/IC80 (Candida tropicalis 156; 24 h): >1 mM; MIC/IC80 (Candida tropicalis 156; 48 h): >1 mM; MIC/IC80 (Candida glabrata 20/l; 24 h): >1 mM; MIC/IC80 (Candida glabrata 20/l; 48 h): >1 mM; MIC/IC80 ([11]; 24 h): >1 mM; MIC/IC80 ([11]; 48 h): >1 mM; MIC/IC80 ([12]; 24 h): >1 mM; MIC/IC80 ([12]; 48 h): >1 mM; MIC/IC80 (Absidia corymbifera 272; 24 h): >1 mM; MIC/IC80 (Absidia corymbifera 272; 48 h): >1 mM; MIC/IC80 ([13]; 72 h): >1 mM; MIC/IC80 ([13]; 120 h): >1 mM
CCCCCOC(=O)[C@H](OC(=O)C[n+]1ccn(C)c1)c1ccccc1 [KG833, R-3-methyl-1-[1-(pentoxycarbonyl)-1-phenylmethoxycarbonylmethyl]imidazolium bromide]	1	>1	>1	>1	>1	>1	>1	>1	>1	>1	>1	>1	>1	>1	>1	>1	0.5	>1	1	>1	MIC/IC80 ([10]; 24 h): >1 mM; MIC/IC80 ([10]; 48 h): >1 mM; MIC/IC80 (Candida krusei ATCC 6258; CK1, 24 h): 1 mM; MIC/IC80 (Candida krusei ATCC 6258; CK1, 48 h): >1 mM; MIC/IC80 (Candida krusei E28; CK2, 24 h): 1 mM; MIC/IC80 (Candida krusei E28; CK2, 48 h): >1 mM; MIC/IC80 (Candida tropicalis 156; 24 h): 1 mM; MIC/IC80 (Candida tropicalis 156; 48 h): >1 mM; MIC/IC80 (Candida glabrata 20/l; 24 h): 1 mM; MIC/IC80 (Candida glabrata 20/l; 48 h): >1 mM; MIC/IC80 ([11]; 24 h): >1 mM; MIC/IC80 ([11]; 48 h): >1 mM; MIC/IC80 ([12]; 24 h): 1 mM; MIC/IC80 ([12]; 48 h): 1 mM; MIC/IC80 (Absidia corymbifera 272; 24 h): 1 mM; MIC/IC80 (Absidia corymbifera 272; 48 h): 1 mM; MIC/IC80 ([13]; 72 h): 0.5 mM; MIC/IC80 ([13]; 120 h): 0.5 mM
